Source: patent publication US12605344B2, “Nanoparticles encapsulating soluble biologics, therapeutics, and imaging agents” (The Trustees of Princeton University, priority 2014, dated 2026)

Columns and labels:
[1] = Maximum loading giving stable nanoparticles (FNP); type: physicochemical; conditions: PBA-b-PAA nanoparticles by FNP
Excerpt: Increasing the percentage of core material necessitated the formation of larger particles. […] This may be because the addition of core material allows the PAA to more tightly pack due to charge shielding effects. Very high loadings of both lysozyme and vancomycin were obtained. Loading of lysozyme as high as 75 wt % was obtained without the formation of large precipitates, however, the particles were too large to analyze using dynamic light scattering (DLS).

[2] = Solubility in organic solvents; type: physicochemical; conditions: in chloroform and acetone

Row | Molecule | loading obtained with stable particles / without large precipitates [1] | solubility [2]
1 | lysozyme | ≤ 75 wt % | –
2 | CN[C@H](CC(C)C)C(=O)N[C@H]1C(=O)N[C@@H](CC(N)=O)C(=O)N[C@H]2C(=O)N[C@H]3C(=O)N[C@H](C(=O)N[C@H](C(=O)O)c4cc(O)cc(O)c4-c4cc3ccc4O)[C@H](O)c3ccc(c(Cl)c3)Oc3cc2cc(c3O[C@@H]2O[C@H](CO)[C@@H](O)[C@H](O)[C@H]2O[C@H]2C[C@](C)(N)[C@H](O)[C@H](C)O2)Oc2ccc(cc2Cl)[C@H]1O [Vancomycin, vancomycin] | up to 90 wt % | poorly soluble
